“Also recorded” adds a separate entry of the source.
Experiments:
[1] = tested on: immunogen; assay: Serum antibody titer to the immunogen after immunity induction (ELISA); assay type: in vivo, mouse; conditions: for serum antibody titer to the immunogen, IgM subclass: mouse serum 3 and 7 days after final immunization vs unimmunized, liposome method with Lipid-A, ELISA; for serum antibody titer to the immunogen, IgG subclass: mouse serum after final immunization (7 days where stated) vs unimmunized, only primary additional immunization; for antibody titer in the IgG subclass: antigen not specified, data not shown
Experimental: (§1) Each immunogen was subcutaneously immunized on the first day, and additional immunization was abdominally conducted after two weeks. The blood was collected after 3 days and 7 days from the additional immunization to prepare serums. Antibody titers in the obtained serums were evaluated by ELISA. An immunogen and a glycoprotein containing an objective carbohydrate were used as solid-phased antigens by ELISA, and each was evaluated as an antibody titer to the immunogen and an antibody titer to the objective carbohydrate (FIGS. 1 to 4).
(§2) In order to evaluate subclasses (IgM and IgG) of produced immunoglobulin, evaluation was conducted using antibodies specific to IgM and IgG as secondary antibodies. An antibody titer was evaluated as an activity of peroxidase that is a labeling enzyme of a secondary antibody. TMB was used as a chromogenic substrate of peroxidase, and an intensity of an absorbance at 450 nm after adding 2 N-sulfuric acid after the reaction was evaluated. FIGS. 1 to 3 illustrate antibody titers of IgM subclass, and FIG. 4 illustrates antibody titers of IgG subclass.
Next, each of racemic forms of various immunity inducers (a1, b1 and c1) synthesized in Examples (1-1), (1-2) and (1-3) was dissolved into s lipid containing cholesterol and phospholipid with an adjuvant (Lipid-A), and immunized a mouse being a host generally producing a monoclonal antibody (C3H/HeN strain) in a liposome method (Eur. J. Immunol., 16, 951-956, 1986) to evaluate the immunity inducing ability.
(§3) Each of the immunity inducers was subcutaneously immunized and additionally abdominally immunized after 2 weeks. After the additional immunization, the blood was collected after 3 days and 7 days, and the serum was examined. The antibody titer in the obtained serum was evaluated by ELISA method. In ELISA method, using two types of antigens of an immunogen and a glycoprotein (Fetuin) containing 6′-Sialyl-LacNAc, 3′-Sialyl-LacNAc and LacNAc structures, they were evaluated as an antibody titer to the immunogen and an antibody titer to the objective carbohydrate, respectively.
(§4) In addition, in order to evaluate subclasses (IgM and IgG) of immunoglobulin, an antibody specific to IgM and IgG was used as a secondary antibody to evaluate the subclasses. The antibody titer was evaluated as an activity of peroxidase that is a labeling enzyme of a secondary antibody. TMB was used for a chromogenic substrate of peroxidase, and an intensity of an absorbance at 450 nm after adding 2 N-sulfuric acid after the reaction was evaluated.
Each of the immunity inducers was subcutaneously immunized on the first day, and the carrier compound was additionally abdominally immunized after 2 weeks. After the additional immunization, the blood was collected after 3 days and 7 days to prepare serums. Antibody titers of the obtained serums were evaluated by ELISA method. In ELISA method, using two types of antigens of an immunogen and a glycoprotein (Fetuin) containing a 6′-Sialyl-LacNAc structure, they were evaluated as an antibody titer to the immunogen and an antibody titer to the objective sugar chain, respectively. In addition, in order to evaluate subclasses (IgM and IgG) of produced immunoglobulin, an antibody specific to IgM and IgG was used as the secondary antibody to evaluate the subclasses. The antibody titer was evaluated as an activity of peroxidase that is a labeling enzyme of the secondary antibody. TMB was used for a chromogenic substrate of peroxidase, and an intensity of an absorbance at 450 nm after adding 2 N-sulfuric acid after the reaction was evaluated. […] Among the evaluated compounds, the antibody titer of a2 was the lowest, and the activity of a3-1 was the highest in the examined compounds.

[2] = tested on: glycoprotein (HL60); assay: Serum antibody titer to HL60 glycoprotein after immunity induction (ELISA); assay type: in vivo, mouse
Experimental: FIG. 9 illustrates serum antibody titers after immunity inductions with sLe^X-C12L and Le^X-C12L: after immunizing a mouse using each of the sLe^X-C12L and Le^X-C12L compounds as an immunity inducer, an antibody titer of each subclass (IgM and IgG) of immunoglobulin in the serum was evaluated by ELISA. A and B show serum antibody titers of a mouse immunized with sLe^X-C12L, C and D show serum antibody titers of a mouse immunized with Le^X-C12. A and C: Evaluations on an immunogen used as an antigen by ELISA. B: Evaluation on a cell extract (HL60) containing a glycoprotein including an epitope of a target carbohydrate used as an antigen by ELISA. […]
as §1, with “The blood was collected after 3 days and 7 days from the additional immunization to prepare serums.” left out
In order to evaluate subclasses (IgM and IgG) of produced immunoglobulin, evaluation was conducted using antibodies specific to IgM and IgG as secondary antibodies. An antibody titer was evaluated as an activity of peroxidase that is a labeling enzyme of a secondary antibody. […]

[3] = tested on: glycoprotein (Fetuin); assay: Serum antibody titer to glycoprotein (Fetuin) after immunity induction (ELISA); assay type: in vivo; conditions: mouse serum 3 and 7 days after final immunization vs unimmunized; Fetuin-a used as antigen for c1
Experimental: as §1
as §2, with “subclass. […]” for “subclass.”
as §3, with “After the additional immunization, the blood was collected after 3 days and 7 days, and the serum was examined.” left out
as §4, with “evaluated. […]” for “evaluated.”

[4] = tested on: glycoprotein (Fetuin) containing a 6′-Sialyl-LacNAc (CDw75) carbohydrate structure; conditions: Non Patent Literature 8, cited from earlier work

| Molecule | serum antibody titer to the immunogen, IgM subclass [1] | serum antibody titer to the immunogen, IgG subclass [1] | serum antibody titer to glycoprotein (Fetuin), IgM subclass [3] | antibody titer in the IgG subclass [1] | also measured |
| --- | --- | --- | --- | --- | --- |
| CCCCCCCCCCCCCCCCCCCCCCCC(=O)N[C@@H](CCCCCCCCCC)CO[C@@H]1O[C@H](CO)[C@@H](O[C@@H]2O[C@H](CO)[C@H](O)[C@H](O[C@]3(C(=O)O)C[C@H](O)[C@@H](NC(C)=O)[C@H]([C@H](O)[C@H](O)CO)O3)[C@H]2O)[C@H](O[C@@H]2O[C@@H](C)[C@@H](O)[C@@H](O)[C@@H]2O)[C@H]1NC(C)=O [sLe^X-C12L, Siaα2,3Galβ1,4(Fucα1,3)GlcNAcβ1-C12L] | significant increases of antibody titers | tendency of an increase of an antibody titer |  |  | serum antibody titer to glycoprotein (HL60), IgG subclass ([2]; only primary additional immunization): significant increase of an antibody titer; serum antibody titer to glycoprotein (HL60), IgM subclass ([2]; serums after 3 days and 7 days from the immunization): significant increases of antibody titers |
| CCCCCCCCCCC(CO[C@@H]1OC(CO)[C@@H](O[C@@H]2OC(CO[C@]3(C(=O)O)CC(O)[C@@H](NC(C)=O)C([C@H](O)[C@H](O)CO)O3)[C@H](O)C(O)C2O)C(O)C1NC(C)=O)NC(C)=O (stereo partly drawn) [a2, reference compound] | significant increases of antibody titers |  | significant increases of antibody titers |  | rank of antibody titer / activity among the evaluated compounds ([1]; a1, a2, a3-1, a3-2, a3-3 compared, IgM subclass): lowest |
| CCCCCCCCCCCCC/C=C/[C@@H](O)C(CO[C@@H]1OC(CO)[C@@H](O[C@@H]2OC(CO)[C@H](O[C@H]3OC(CO)[C@H](O)C(O[C@@H]4OC(CO)[C@H](O)C(O)C4NC(C)=O)C3O)C(O)C2O)C(O)C1O)NC(=O)CCCCCCCCCCCCCCCCCCCCCCC (stereo partly drawn) [Globoside, GalNAcβ1,3Galα1,4Galβ1,4Glcβ1-Cer, reference compound] | significantly increased | not confirmed |  |  | serum antibody titer to the immunogen, IgM subclass ([1]; listed as globoside): significant increase of the antibody titer |
| Siaα2,3-Galβ1,4GlcNAcβ1-CerA [b1] | significantly increased; also recorded: significant increases of antibody titers |  | significantly increased; also recorded: significant increases of antibody titers | not observed |  |
| phosphatidylethanolamine |  |  |  |  | appearance ratio of positive clones, conventional technique ([4]; 581 wells): 1.3%; positive clones, conventional technique ([4]; out of selected 581 wells): 8 wells |
| CCCCCCCCCCCCCCCCCC(=O)NC(CCCCCCCCCC)CO[C@@H]1OC(CO)[C@@H](O[C@@H]2OC(CO[C@]3(C(=O)O)CC(O)[C@@H](NC(C)=O)C([C@H](O)[C@H](O)CO)O3)[C@H](O)C(O)C2O)C(O)C1NC(C)=O (stereo partly drawn) [a1, Siaα2,6Galβ1,4GlcNAcβ1-CerA] | significantly increased; also recorded: significant increases of antibody titers |  | significantly increased; also recorded: significant increases of antibody titers | not observed |  |
